Molecular target: human GPR40 (Homo sapiens (Human), UniProt O14842)
Assay: GPR40 Calcium Flux Assay;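 also: calcium flux followed with the Fluo-8 fluorescent dye, intensity read each second over 8 min as compounds were added to the cells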
Type: cell-based
Conditions: transfected HEK293 cells stably expressing human GPR40; Ca2+ mobilization; mean data; read-out: hGPR40 Ca^2+ Assay EC50

Chain of human GPR40 (O14842 whole entry): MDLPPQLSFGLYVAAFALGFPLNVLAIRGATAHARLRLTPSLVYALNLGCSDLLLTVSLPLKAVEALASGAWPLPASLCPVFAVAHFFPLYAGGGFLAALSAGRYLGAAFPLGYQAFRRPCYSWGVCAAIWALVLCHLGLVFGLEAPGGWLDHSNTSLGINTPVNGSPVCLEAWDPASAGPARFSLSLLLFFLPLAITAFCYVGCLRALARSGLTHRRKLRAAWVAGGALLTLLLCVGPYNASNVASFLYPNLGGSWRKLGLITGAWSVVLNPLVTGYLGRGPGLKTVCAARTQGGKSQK

Row | Compound | EC50 [nM]
1 | CC#C[C@@H](Cc1nnn[nH]1)c1ccc(OCc2ccc3scc(-c4ccc(OCCC(C)(C)O)cc4C)c3c2)nc1 [Cpd 43, (2R)-4-(4-(5-(((5-(1-(1H-Tetrazol-5-yl)pent-3-yn-2-yl)pyridin-2-yl)oxy)methyl)-benzo[b]thiophen-3-yl)-3-methylphenoxy)-2-methylbutan-2-ol] | 130
2 | CC#C[C@@H](Cc1nnn[nH]1)c1ccc(OCc2ccc3sc(C(F)(F)F)c(C4CC4)c3c2)cc1 [Cpd 37, (2S)-5-(2-(4-((3-Cyclopropyl-2-(trifluoromethyl)benzo[b]thiophen-5-yl)methoxy)phenyl)pent-3-yn-1-yl)-1H-tetrazole] | 590
3 | CC#C[C@@H](Cc1nnn[nH]1)c1ccc(OCc2cnc3scc(-c4ccc(OC)cc4C)c3c2)cc1 [Cpd 50, (2S)-5-((4-(1-(1H-Tetrazol-5-yl)pent-3-yn-2-yl)phenoxy)methyl)-3-(4-methoxy-2-methylphenyl)thieno[2,3-b]pyridine] | 52

Tested on: Male SD rats
Assay: Oral Glucose Tolerance Test
Type: in vivo, rat
Conditions: 10 mg/kg po 30-40 min prior to oGTT (glucose 2 g/kg po), blood glucose AUC t=0 to t=120 min
Protocol: Male SD rats (200-250 g) were housed 2 per cage in a temperature-controlled room with a 12-hour light/dark cycle. They were allowed ad libitum access to water and fed with normal rodent chow. The night before the oral glucose tolerance test (oGTT), the rats were transferred to clean cages and fasted overnight. On the morning of the oGTT, the rats were weighed and randomized into groups based on fasted blood glucose and body weight. Rats were dosed with vehicle (0.5% methocel) or compounds (10 mg/kg, po) thirty to forty min prior to the oGTT (glucose, 2 g/kg, po). Blood was collected from the tail vein at 0, 10, 30, 60 and 120 minutes after glucose challenge to measure blood glucose; plasma was used to determine insulin levels. The area under the curve for blood glucose excursion was calculated from t=0 to t=120 minutes. Percent lowering of glucose was calculated from the AUC data with respect to the vehicle-treated group.

Row | Compound | Percent Lowering of Glucose (AUC compound vs. AUC Vehicle) [%]
4 | CC#C[C@@H](Cc1nnn[nH]1)c1ccc(OCc2ccc3scc(-c4ccccc4C)c3c2)cc1 [Cpd 1, (2S)-5-(2-(4-((3-(2-Methylphenyl)benzo[b]thiophen-5-yl)methoxy)phenyl)pent-3-yn-1-yl)-1H-tetrazole] | 81
5 | CC#C[C@@H](Cc1nnn[nH]1)c1ccc(OCc2ccc3scc(-c4ccc(OCCCS(C)(=O)=O)cc4C)c3c2)cc1 [Cpd 16, (2S)-5-(2-(4-((3-(2-Methyl-4-(3-(methylsulfonyl)propoxy)phenyl)benzo[b]thiophen-5-yl)methoxy)phenyl)pent-3-yn-1-yl)-1H-tetrazole] | 105
6 | CC#C[C@@H](Cc1nnn[nH]1)c1ccc(OCc2ccc3scc(-c4ccc(OCC5(C)CS(=O)(=O)C5)cc4C)c3c2)cc1 [Cpd 12, (2S)-3-((4-(5-((4-(1-(1H-Tetrazol-5-yl)pent-3-yn-2-yl)phenoxy)methyl)benzo[b]thiophen-3-yl)-3-methylphenoxy)methyl)-3-methylthietane 1,1-dioxide] | 101
7 | CC#C[C@@H](Cc1nnn[nH]1)c1ccc(OCc2ccc3sc(F)c(-c4ccc(OCCOC)cc4C)c3c2)cc1 [Cpd 44, (2S)-5-(2-(4-((2-Fluoro-3-(4-(2-methoxyethoxy)-2-methylphenyl)benzo[b]thiophen-5-yl)methoxy)phenyl)pent-3-yn-1-yl)-1H-tetrazole] | 91
8 | CC#C[C@@H](Cc1nnn[nH]1)c1ccc(OCc2ccc3sc(C(F)(F)F)c(-c4ccc(OCCOC)cc4C)c3c2)cc1 [Cpd 47, 5-((2S)-2-(4-((3-(4-(2-Methoxyethoxy)-2-methylphenyl)-2-(trifluoromethyl)benzo[b]thiophen-5-yl)methoxy)phenyl)pent-3-yn-1-yl)-1H-tetrazole] | 91

Reference: patent US10106553B2, “Substituted benzothiophenyl derivatives as GPR40 agonists for the treatment of type II diabetes” (Janssen Pharmaceutica NV, priority 2016, dated 2018)
